From ChEMBL document CHEMBL1157272, “Four aristolochic acid esters of rearranged ent-elemane sesquiterpenes from aristolochia heterophylla” (J Nat Prod, 1999)

assay: Cytotoxicity against human HepG2(2.2.15) cells; type: functional, cell-based

| SMILES | IC50 |
| --- | --- |
| C=C[C@@]1(C)CCC=C(C[C@H](C)OC(=O)c2cc3c(c4c2c([N+](=O)[O-])cc2c(OC)cccc24)OCO3)[C@H]1C(=C)C=O [ARISTOPHYLLIDE A] | 5.1 µM |
| C=C[C@@]1(C)CCC=C(C[C@@H](C)OC(=O)c2cc3c(c4c2c([N+](=O)[O-])cc2c(OC)cccc24)OCO3)[C@@H]1C(=C)C=O [ARISTOPHYLLIDE B] | 9.4 µM |
| C=C[C@@]1(C)CCC=C(C[C@H](C)OC(=O)c2cc3c(c4c2c([N+](=O)[O-])cc2ccccc24)OCO3)[C@H]1C(=C)C=O [ARISTOPHYLLIDE C] | 6.2 µM |
| C=C[C@@]1(C)CCC=C(C[C@@H](C)OC(=O)c2cc3c(c4c2c([N+](=O)[O-])cc2ccccc24)OCO3)[C@@H]1C(=C)C=O [ARISTOPHYLLIDE D] | 13.2 µM |
